From ChEMBL document CHEMBL3638977, “Heteroaryl sodium channel inhibitors” (2015) come the findings set out here.

For the experiment, the target named is Sodium channel protein type 9 subunit alpha (Homo sapiens, UniProt Q15858). The experiment is described as follows: In Vitro Assay: 293 cells stably transfected with either Nav 1.7 or with Nav 1.5 were recorded in population patch-clamp mode with the IonWorks® Quattro automated electrophysiology system in accordance with the manufacturer's specifications (Molecular Devices, LLC, Sunnyvale, Calif.). Sodium channel currents were measured in response to a train of depolarizations that induced successively greater inactivation.Cells were held at −110 mV for three seconds (Nav 1.7) or half a second (Nav 1.5) from a holding voltage of −15 mV, then put through a series of 26 pulses of 150 msec duration to −20 mV at a frequency of 5 Hz. Cells were then left unclamped for a period of 3 to 8 minutes while a single concentration of test compound was added. Cells were then reclamped and put through the same voltage protocol. Current at the end of the 26th pulse to −20 mV was subtracted from the peak current evoked by the 26th pulse to −20 mV to correct for leak current. Type of experiment: cell-based.
Chain of Sodium channel protein type 9 subunit alpha (Q15858 whole entry): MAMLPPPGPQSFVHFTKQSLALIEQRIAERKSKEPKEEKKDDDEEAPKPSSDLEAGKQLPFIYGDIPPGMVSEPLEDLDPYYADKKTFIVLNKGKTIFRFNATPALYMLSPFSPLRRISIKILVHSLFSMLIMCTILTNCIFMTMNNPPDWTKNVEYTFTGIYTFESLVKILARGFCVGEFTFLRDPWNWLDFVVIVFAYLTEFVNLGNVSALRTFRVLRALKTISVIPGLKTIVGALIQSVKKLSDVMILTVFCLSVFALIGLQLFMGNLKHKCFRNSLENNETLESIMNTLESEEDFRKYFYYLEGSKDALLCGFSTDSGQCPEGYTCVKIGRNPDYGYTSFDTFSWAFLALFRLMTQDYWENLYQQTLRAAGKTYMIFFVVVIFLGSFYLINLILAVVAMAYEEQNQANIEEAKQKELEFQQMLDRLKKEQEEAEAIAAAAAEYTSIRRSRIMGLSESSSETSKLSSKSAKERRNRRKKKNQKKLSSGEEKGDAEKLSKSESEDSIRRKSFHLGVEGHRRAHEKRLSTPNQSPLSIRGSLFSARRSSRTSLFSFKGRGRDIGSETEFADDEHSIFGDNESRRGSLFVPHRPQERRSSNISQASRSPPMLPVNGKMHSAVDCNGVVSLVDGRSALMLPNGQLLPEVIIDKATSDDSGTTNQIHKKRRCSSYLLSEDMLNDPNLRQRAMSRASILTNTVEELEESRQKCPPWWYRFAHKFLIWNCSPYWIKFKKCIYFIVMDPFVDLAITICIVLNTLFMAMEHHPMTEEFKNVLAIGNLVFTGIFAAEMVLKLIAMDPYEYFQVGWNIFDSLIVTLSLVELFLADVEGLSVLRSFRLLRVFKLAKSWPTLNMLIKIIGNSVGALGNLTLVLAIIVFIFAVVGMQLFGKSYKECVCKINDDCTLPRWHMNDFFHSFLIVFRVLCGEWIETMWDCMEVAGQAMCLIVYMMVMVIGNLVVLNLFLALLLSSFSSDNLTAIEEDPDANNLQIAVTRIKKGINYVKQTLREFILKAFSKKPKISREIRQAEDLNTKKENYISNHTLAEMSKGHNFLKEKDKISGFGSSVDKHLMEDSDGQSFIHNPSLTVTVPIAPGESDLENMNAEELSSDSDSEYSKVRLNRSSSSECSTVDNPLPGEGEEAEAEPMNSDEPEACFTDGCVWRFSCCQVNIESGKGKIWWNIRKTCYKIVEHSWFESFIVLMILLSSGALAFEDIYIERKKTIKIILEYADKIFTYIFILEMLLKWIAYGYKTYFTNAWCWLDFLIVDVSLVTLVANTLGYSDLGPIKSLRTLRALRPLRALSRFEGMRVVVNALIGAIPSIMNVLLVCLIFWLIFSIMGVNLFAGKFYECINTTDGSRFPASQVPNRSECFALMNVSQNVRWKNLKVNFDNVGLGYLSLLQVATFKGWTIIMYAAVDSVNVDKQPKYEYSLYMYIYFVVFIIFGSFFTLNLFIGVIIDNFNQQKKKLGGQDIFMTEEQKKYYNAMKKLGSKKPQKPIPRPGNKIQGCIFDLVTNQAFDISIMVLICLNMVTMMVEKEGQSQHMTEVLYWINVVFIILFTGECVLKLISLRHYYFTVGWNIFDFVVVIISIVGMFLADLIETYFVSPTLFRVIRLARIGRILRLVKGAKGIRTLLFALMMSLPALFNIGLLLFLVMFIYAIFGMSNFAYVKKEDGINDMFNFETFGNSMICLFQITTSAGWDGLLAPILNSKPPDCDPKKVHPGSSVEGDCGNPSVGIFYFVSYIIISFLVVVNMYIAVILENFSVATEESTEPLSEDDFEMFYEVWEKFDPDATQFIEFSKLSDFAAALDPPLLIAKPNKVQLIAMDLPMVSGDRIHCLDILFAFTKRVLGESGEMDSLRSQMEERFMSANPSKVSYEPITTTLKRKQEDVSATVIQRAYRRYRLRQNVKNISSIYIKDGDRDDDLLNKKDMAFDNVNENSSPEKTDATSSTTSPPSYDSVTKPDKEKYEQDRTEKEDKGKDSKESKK
In turn, `Cn1cc(-c2cccc3ccccc23)c2ccc(S(=O)(=O)Nc3ncns3)cc21` displayed an IC50 of 0.306 µM.
The compound `Cn1cc(-c2ccc(C(F)(F)F)c(Cl)c2)c2ccc(S(=O)(=O)Nc3ncns3)cc21` returned an IC50 of 3.19 µM. Compared with the last compound, the IC50 is about 10-fold higher.
The compound `COc1cc(F)ccc1-c1cn(C)c2cc(S(=O)(=O)Nc3ncns3)ccc12` returned an IC50 of 0.338 µM.
The value for `COc1cc(OC)cc(-c2cn(C)c3cc(S(=O)(=O)Nc4ncns4)ccc23)c1` was 5.96 µM; that for `Cn1cc(-c2ccc(F)c(C#N)c2)c2ccc(S(=O)(=O)Nc3ncns3)cc21` was 1.28 µM.
As for `Cn1cc(-c2ccc(C#N)c(F)c2)c2ccc(S(=O)(=O)Nc3ncns3)cc21`, the figure is 3.06 µM; as for `Cn1cc(-c2ccc(OC(F)(F)F)cc2)c2ccc(S(=O)(=O)Nc3ncns3)cc21`, 4.67 µM; as for `Cn1cc(-c2cccc(OC(F)(F)F)c2)c2ccc(S(=O)(=O)Nc3ncns3)cc21`, 0.87 µM.
Compound `Cn1cc(-c2cccc(C#N)c2)c2ccc(S(=O)(=O)Nc3ncns3)cc21` had an IC50 of 2 µM.
The value for `Cn1cc(-c2ccccc2)c2ccc(S(=O)(=O)Nc3ncns3)cc21` was 1.55 µM; that for `COc1ccc(-c2cn(C)c3cc(S(=O)(=O)Nc4ncns4)ccc23)c(OC)c1` was 0.904 µM; that for `Cn1cc(-c2cccc3ncccc23)c2ccc(S(=O)(=O)Nc3ncns3)cc21` was 0.663 µM.
`Cn1cc(-c2cccc(S(C)(=O)=O)c2)c2ccc(S(=O)(=O)Nc3ncns3)cc21` yielded an IC50 of 0.528 µM.
In turn, `COc1ccc(-c2cn(C)c3cc(S(=O)(=O)Nc4ncns4)ccc23)c2ccccc12` came in with an IC50 of 2.64 µM.
For the compound `COc1ccc(-c2cn(C)c3cc(S(=O)(=O)Nc4ncns4)ccc23)c(Cl)c1`, the IC50 stood at 2.31 µM.
Regarding `Cc1noc(C)c1-c1cn(C)c2cc(S(=O)(=O)Nc3ncns3)ccc12`, the IC50 was determined as 2.62 µM.
In turn, `Cn1cc(-c2ccc(Br)cc2C(F)(F)F)c2ccc(S(=O)(=O)Nc3ncns3)cc21` came in with an IC50 of 3.53 µM. This IC50 and that of the compound before are within 1.5-fold of each other.
Turning to `Cn1cc(-c2ccccc2C(F)(F)F)c2ccc(S(=O)(=O)Nc3ncns3)cc21`, the IC50 is 6 µM. Compared with the last compound, the IC50 is about 1.7-fold higher.
Take `Cc1cnc(N)c(-c2cn(C)c3cc(S(=O)(=O)Nc4ncns4)ccc23)c1`: the IC50 was 5.95 µM.
As for `Cc1cc(C#N)ccc1-c1cn(C)c2cc(S(=O)(=O)Nc3ncns3)ccc12`, the IC50 was determined as 2.35 µM.
In turn, `CN(C)c1cccc(-c2cn(C)c3cc(S(=O)(=O)Nc4ncns4)ccc23)c1` yielded an IC50 of 4.2 µM.
As for `Cn1cc(-c2cccc(C(F)(F)F)c2)c2ccc(S(=O)(=O)Nc3ncns3)cc21`, the figure is 3.81 µM; as for `COc1ccc(-c2cn(C)c3cc(S(=O)(=O)Nc4ncns4)ccc23)cc1C(F)(F)F`, 4.48 µM; as for `Cn1nccc1-c1cn(C)c2cc(S(=O)(=O)Nc3ncns3)ccc12`, 7.14 µM.
